Results reported in patent US20110212909A1, “Use of Ginsenoside Compound K in the Preparation of a Medicament for the Prevention and Treatment of Atherosclerosis” (priority 2008, published 2011).
Marks after values point to notes of the source that are not given here.

Assays:
sCD40L = experiment: Serum sCD40L by double antibody sandwich ELISA in apo E−/− mice; format: in vivo, mouse; conditions: 15 weeks
Protocol: (§1) 80 healthy clean grade C57BL/6J apo E^−/^− mice of 10 weeks old, wherein male and female mice were fifty-fifty, weight 20-22 g, were breed and divided into individual cage in sterile laminar flow rack, allowing mice to freely drink water and get food. Mice were raised for 30 weeks by “Western Diet” (routine mouse feed +0.15% cholesterol +21% fat) high fat feed (^60cobalt sterilization radiation treatment), with raising conditions being SPF grade, room temperature maintained at 24° C., relative humidity of 50%, and lighting time of 7: 30-19: 30. Animal house was sterilized by ultraviolet lamp once every two days, in order to maintain sterile environment of laminar flow rack (establishment of animal model of atherosclerosis refers to reference: Barish G D, Atkins A R, Downes M, Olson P, Chong L W, Nelson M, Zou Y H, Hwang H S, Kang H J, Curtiss L, Evans R M, Lee C H. PPARδ regulates multiple proinflammatory pathways to suppress atherosclerosis. Proc Natl Acad Sci, 2008, 105 (11): 4271-4276.).
(§2) 5 mice of apo E^−/^− mice raised for 15 weeks were randomly selected and sacrificed, root of aorta of which was taken, and replication condition in AS model was observed by HE staining. The remaining mice were randomly divided into 5 groups as follows (n=15): […]
(§3) Above drugs were firstly solved in DMSO, then suspended in 0.5% carboxymethylcellulose solution, mixed homogeneously, and then were administered via gavage, once a day. Mice were weighted once a week, and ingestion amounts were recorded, and drug doses were adjusted according to weight, interfering for 15 weeks. […]
• blood fat assay: TC, TG, HDL-C, and LDL-C concentrations in serum were determined by applying Olympus Au2700 fully automatic biochemical appearance. • serum inflammatory markers assay: hs-CRP and sCD40L concentrations were determined by applying double antibody sandwich ELISA, in accordance with ELISA kit operating instruction (hs-CRP ELISA kit bought from Herrenberg company, Germany; sCD40L ELISA kit bought from Bender Medsystems company, Austria). • real-time quantitative PCR analysis was carried out on expression of CD36, perilipin, ABCA1, LXRα, MMP-9 and NF-κ B mRNA in apo E^−/^− mouse aorta (a reference method: Zhang Yiguan, Li Xiaohui, Fan Jishan, Zhang Haigang, Li Shuhui, Liao Wenqiang, Pang Yan, Jia Yi. […] 2007, 27 (11): 1601-1607)0 • morphology index image analysis: When slices were HE stained, under X40 fold ordinary light microscope, artery atherosclerosis plaque area of each incisal surface was determined by “Image Pro Plus 5.0” image analysis software. […]

ABCA1 mRNA = experiment: Real-time quantitative PCR of ABCA1 mRNA in apo E−/− mouse aorta; format: in vivo; conditions: apo E−/− mice, 15 weeks
Protocol: as §1, §2, §3
• blood fat assay: TC, TG, HDL-C, and LDL-C concentrations in serum were determined by applying Olympus Au2700 fully automatic biochemical appearance. • serum inflammatory markers assay: hs-CRP and sCD40L concentrations were determined by applying double antibody sandwich ELISA, in accordance with ELISA kit operating instruction (hs-CRP ELISA kit bought from Herrenberg company, Germany; sCD40L ELISA kit bought from Bender Medsystems company, Austria). • real-time quantitative PCR analysis was carried out on expression of CD36, perilipin, ABCA1, LXRα, MMP-9 and NF-κ B mRNA in apo E^−/^− mouse aorta (a reference method: Zhang Yiguan, Li Xiaohui, Fan Jishan, Zhang Haigang, Li Shuhui, Liao Wenqiang, Pang Yan, Jia Yi. […] 2007, 27 (11): 1601-1607)0 • morphology index image analysis: When slices were HE stained, under X40 fold ordinary light microscope, artery atherosclerosis plaque area of each incisal surface was determined by “Image Pro Plus 5.0” image analysis software. […] As to Masosn staining, aortic root collagen area (CA) was measured by “Image Pro Plus 5.0” image analysis software, and collagen vessel area ratio (CA/CVA) was calculated. […]

[1] = simvastatin 10.0 mg/kg/day gavage
[2] = C-K high dose 50.0 mg/kg/day gavage
[3] = C-K middle dose 25.0 mg/kg/day gavage

`CCC(C)(C)C(=O)O[C@H]1C[C@@H](C)C=C2C=C[C@H](C)[C@H](CC[C@@H]3C[C@@H](O)CC(=O)O3)[C@H]21` [simvastatin, reference compound] was tested, and the “sCD40L concentration in serum” value (sCD40L; [1]) was 4.59 ± 0.37^b ng/mL and the “expression of ABCA1 mRNA in aorta (relative concentrations)” value (shortened to “expression … (relative concentrations)”) (ABCA1 mRNA; [1]) was 0.78 ± 0.12^a.

In the case of `CC(C)=CCC[C@](C)(OC1OC(CO)C(O)C(O)C1O)C1CC[C@]2(C)C1[C@H](O)CC1[C@@]3(C)CC[C@H](O)C(C)(C)C3CC[C@]12C` (stereo partly drawn) [C-K, 20-O-β-D-glucopyranosyl 20-(S)-protopanaxadiol], the “sCD40L concentration in serum” value (sCD40L; [2]) is reported as 5.19 ± 0.19^a ng/mL, the “sCD40L concentration in serum” value (sCD40L; C-K low dose 12.5 mg/kg/day gavage, model 6.15 ± 0.21) is reported as 5.51 ± 0.35^a ng/mL and the “sCD40L concentration in serum” value (sCD40L; [3]) is reported as 5.34 ± 0.32^a ng/mL. For the same compound, the “expression … (relative concentrations)” value (ABCA1 mRNA; [2]) was 1.34 ± 0.13^b, the “expression … (relative concentrations)” value (ABCA1 mRNA; C-K low dose 12.5 mg/kg/day gavage, model 0.65 ± 0.18) was 1.08 ± 0.15^b and the “expression … (relative concentrations)” value (ABCA1 mRNA; [3]) was 1.19 ± 0.18^b.
